Read-outs that look alike come from different tables or passages of the source.
Columns and labels:
[1] = test system: L. major promastigotes; assay: Promastigote growth inhibition assay (MTT), L. major; type: cell-based, Leishmania major; details: for IC50: Leishmania major; for IC50 / L. major IC50 (μM± SD): 72 h; for anti-leishmanial activity against promastigotes of L. major (in words): in vitro
Method: (§1) L. major and L. tropica (Clinical isolates) promastigotes were grown at […] in RPMI-1640 (Sigma) medium containing 10% of heat-inactivated (56°C for 30 min) fetal bovine serum. Cell viability was initially evaluated by wet mount method by observing the live cells under compound microscope. Parasite growth was assessed by counting live / motile promastigotes in a Neubauer chamber. Viable cell count was used for the further experimentations (treatments).
(§2) The promastigotes in their log phase were used in 96-well plates. 1 × 10^6 wild-type and resistant promastigotes were dispensed in 96 96-well plates, and incubated with tested compounds at a range concentration of 200–10 μM at 27°C for 72 h. After incubation of 72 h, MTT dye (3-(4,5-dimethylthiazol-2-yl)-2,5-diphenyl-2H-tetrazolium bromide) was added and further incubate it for 3–4 h. Amphotericin B, pantamidine and miltefosine were used as the positive control, untreated promastigotes were used as negative control moreover DMSO control was also added in the study as a stock solution of the compounds that were prepared in DMSO. All the experiments were performed in triplicates. After completion of the experiment the absorbance by Multiskan ascent plate reader at 452 nm and percent inhibition was calculated by the following formula.
(§3) Cytotoxic concentration (%) = [100- (Absorbance of test)/ (Absorbance of solvent control) ×100] %.

[2] = test system: L. tropica promastigotes; assay: Promastigote growth inhibition assay (MTT), L. tropica clinical isolates; type: cell-based, Leishmania tropica; details: for IC50: Leishmania tropica; for IC50 / L. tropica IC50 (μM± SD): 72 h
Method: as §1, §2, §3

[3] = Cytotoxicity (MTT) against BJ cell line; type: cell-based, human; details: pure compounds, human fibroblast, 48 h, read-out: BJ cell line CC50 (μM± SD)
Method: (§4) The cytotoxicity of the test compounds against normal cell lines was evaluated through MTT (3-[4, 5-dimethylthiazole-2-yl]-2, 5-diphenyl-tetrazolium bromide] colorimetric assay in 96-well flat-bottomed microplates. The 3T3 (mouse fibroblast) and BJ (human fibroblast) were cultured Dulbecco’s Modified Eagle Medium, supplemented with 5% of fetal bovine serum (FBS), 100 IU/mL of penicillin and 100 μg/mL of streptomycin in 75 cm2 flasks, and then incubated in 5% CO2 incubator at 37°C. The growing cells were counted by using a haemocytometer, and diluted with the particular medium. The 5x10^4 cells/mL of the cell culture was prepared, and a sample […] was introduced into each well. […] After 48 hours, 200 μL MTT (0.5 mg/mL) was added, and the incubation was further continued for 4 hrs. After that time, 100 μL of DMSO was added to each well. The absorbance was measured using a micro plate reader (Spectra Max Plus, Molecular Devices, CA, USA) at 570 nm for the extent of MTT reduction to formazan within the cells. The cytotoxicity was recorded as CC50 against cells by using Soft- Max Pro software. Doxorubicin and cycloheximide were used as positive control. The experiments were run in triplicate.

[4] = test system: BJ (human fibroblast) cells; assay: Cytotoxicity (MTT) against BJ cell line; type: cell-based; details: for L. tropica SI (CC50/ IC50): CC50 BJ cell line / IC50 L. tropica; for BJ (human fibroblast) IC50 (μM± SD): cytotoxicity of compounds 1-9; for BJ cell line CC50 (μM± SD): pure compounds, human fibroblast, 48 h; for IC50: Homo sapiens, Fibroblast, read-out: BJ (human fibroblast) IC50 (μM± SD)
Method: as §4

[5] = test system: 3T3 (mouse fibroblast) cells; assay: Cytotoxicity (MTT) against 3T3 cell line; type: cell-based; details: for 3T3 (mouse fibroblast) IC50 (μM ± SD): cytotoxicity of compounds 1-9; for IC50: Mus musculus, Fibroblast, read-out: 3T3 (mouse fibroblast) IC50 (μM ± SD); for 3T3 Cell line CC50 (μM± SD): pure compounds, mouse fibroblast, 48 h
Method: (§5) The cytotoxicity of the test compounds against normal cell lines was evaluated through MTT (3-[4, 5-dimethylthiazole-2-yl]-2, 5-diphenyl-tetrazolium bromide] colorimetric assay in 96-well flat-bottomed microplates. The 3T3 (mouse fibroblast) and BJ (human fibroblast) were cultured Dulbecco’s Modified Eagle Medium, supplemented with 5% of fetal bovine serum (FBS), 100 IU/mL of penicillin and 100 μg/mL of streptomycin in 75 cm2 flasks, and then incubated in 5% CO2 incubator at 37°C. The growing cells were counted by using a haemocytometer, and diluted with the particular medium. The 5x10^4 cells/mL of the cell culture was prepared, and a sample […] was introduced into each well. The medium was removed after overnight incubation, and 200 μL of fresh medium was added with different concentrations of compounds (1–30 μM). After 48 hours, 200 μL MTT (0.5 mg/mL) was added, and the incubation was further continued for 4 hrs. After that time, 100 μL of DMSO was added to each well. The absorbance was measured using a micro plate reader (Spectra Max Plus, Molecular Devices, CA, USA) at 570 nm for the extent of MTT reduction to formazan within the cells. The cytotoxicity was recorded as CC50 against cells by using Soft- Max Pro software. Doxorubicin and cycloheximide were used as positive control. The experiments were run in triplicate.

[6] = test system: MIL-resistant L. tropica promastigotes; assay: Growth inhibition assay (MTT) against MIL-resistant line; type: cell-based, Leishmania tropica; details: 72 h; for MIL Resistant L. tropica IC50 (μM± SD): miltefosine-unresponsive strain, promastigotes
Method: as §2, §3
Promastigote cultures tL. tropica (Clinical isolates) were maintained at 26°C in RPMI-1640 medium containing 15% FBS and 1% penicillin–streptomycin mixture.
Generation of miltefosine-unresponsive strain was carried under high MIL pressure by in vitro passage with a stepwise increase in the MIL concentration. At each step, parasites were cultured and passaged every 3–4 days at an initial concentration of 5x10^5 promastigotes/mL in order to achieve -stable growth as compared to the wildtype isolate. Growth rates were measured for resistant populations and compared with the WT strain. Parasites were counted at an initial concentration of 5x10^5 parasites/mL and growth was measured daily using a Neubauer chamber until the population reached the stationary phase. Furthermore, the fluorescence microscopic investigations via DAPI stain were also carried out to supplement the study.

[7] = Cytotoxicity (MTT) against 3T3 cell line; type: cell-based, mouse; details: pure compounds; mouse fibroblast, 48 h; read-out: 3T3 Cell line CC50 (μM± SD)
Method: as §5

[8] = CC50 BJ fibroblast cell line / IC50 L. major
[9] = extracts, fractions, standard drugs, promastigotes, read-out: L. major IC50 (μg/ml ± SD)
[10] = pure compounds, standard drugs, promastigotes, read-out: L. major IC50 (μM± SD)
[11] = CC50 BJ fibroblast cell line / IC50 L. tropica
[12] = extracts, fractions, standard drugs, promastigotes, read-out: L. tropica IC50 (μg/ml ± SD)
[13] = pure compounds, standard drugs, promastigotes, clinical isolate, read-out: L. tropica IC50 (μM± SD)
[14] = pure compounds, standard drugs, promastigotes
[15] = pure compounds, standard drugs, promastigotes, clinical isolate
[16] = CC50 3T3 mouse fibroblast cell line / IC50 L. major
[17] = read-out: L. major IC50 (μM± SD)
[18] = read-out: L. tropica IC50 (μM± SD)

| Compound | L. major SI (CC50/ IC50) [1, 8] | IC50 [1, 9] [µg/mL] | IC50 [1, 10] [µM] | L. tropica SI (CC50/ IC50) [2, 11] | IC50 [2, 12] [µg/mL] | IC50 [2, 13] [µM] | L. tropica SI (CC50/ IC50) [4] | anti-leishmanial activity against promastigotes of L. major (in words) [1] | L. major IC50 (μM± SD) [1, 14] | BJ (human fibroblast) IC50 (μM± SD) [4] | 3T3 (mouse fibroblast) IC50 (μM ± SD) [5] | IC50 [1, 17] [µM] | IC50 [2, 18] [µM] | MIL Resistant L. tropica IC50 (μM± SD) [6] | CC50 at 48 h [3] [µM] | 3T3 Cell line CC50 (μM± SD) [5] | also measured |
| --- | --- | --- | --- | --- | --- | --- | --- | --- | --- | --- | --- | --- | --- | --- | --- | --- | --- |
| C[C@@H]1[C@H](O)[C@@H](C)/C=C/C=C/C=C/C=C/C=C/C=C/C=C/[C@H](O[C@@H]2O[C@H](C)[C@@H](O)[C@H](N)[C@@H]2O)C[C@@H]2O[C@](O)(C[C@@H](O)C[C@@H](O)[C@H](O)CC[C@@H](O)C[C@@H](O)CC(=O)O[C@H]1C)C[C@H](O)[C@H]2C(=O)O [Amphotericin B, reference compound] | 4.37 | 3.14 ± 0.04 | 3.39 ± 0.043 | 4.69 | 3.16 ± 0.04 | 3.42 ± 0.04 | 4.69 |  |  |  |  |  |  |  |  |  | CC50 at 48 h ([3]; BJ fibroblast cells): 16.1 µM |
| CC12C(=O)C=CC=C1C(O)CC1C(=O)C3=NCC4C(=O)OC5CC4(C)C3C3(O)C(O)(CCC12)C(=O)OC53C (stereo not drawn) [Compound 1, Aminophysalin B] |  |  |  |  |  |  |  | no significant activity | Inactive | Non cytotoxic | Non cytotoxic |  |  |  |  |  | L. tropica IC50 (μM± SD) [2, 15]: Inactive; BJ cell line CC50 (μM± SD) [4]: Non cytotoxic |
| C[C@]12C(=O)C=CCC1=CC[C@@H]1[C@@H]2CC[C@]2(O)C(=O)O[C@@]3(C)[C@H]4C[C@]5(C)[C@@H](CO[C@@]16O[C@@]32[C@H]5C6=O)C(=O)O4 [Compound 2, Physalin B] | 3.5 |  |  | 0.8 |  |  | 0.8 |  |  |  |  | 3.04 ± 1.12 | 13.33 ± 0.098 | inactive | 10.8 ± 1.5 |  | L. major SI (CC50/ IC50) [1, 16]: 3.28; L. major SI (CC50/ IC50) ([4]; CC50 BJ cell line / IC50 L. major): 3.5; IC50 [4]: 27.6 ± 0.9 µM; CC50 at 48 h [7]: 10 ± 0.4 µM; IC50 [5]: 10 ± 0.4 µM |
| CC12CC3OC(=O)C1COC14OC5(C2C1=O)C(O)(CCC1C4CC2OC24CC=CC(=O)C14C)C(=O)OC35C (stereo not drawn) [Compound 3, 5β, 6β-epoxyphysalin B] | 7.34 |  |  | 1.48 |  |  | 1.48 |  |  |  |  | 3.76 ± 0.85 | 18.5 ± 0.28 | inactive | 27.6 |  | L. major SI (CC50/ IC50) [1, 16]: 0.19; L. tropica SI (CC50/ IC50) ([2]; CC50 3T3 mouse fibroblast cell line / IC50 L. tropica): 0.038; IC50 [4]: 10.8 ± 1.5 µM; CC50 at 48 h [7]: 0.72 ± 0.5 µM; L. tropica SI (CC50/ IC50) ([5]; CC50 3T3 cell line / IC50 L. tropica): 0.038; IC50 [5]: 0.72 ± 0.5 µM |
| C[C@]12C(=O)C=CC=C1[C@@H](O)C[C@@H]1[C@@H]2CC[C@@]2(O)C(=O)O[C@@]3(C)[C@H]4C[C@]5(C)[C@@H](CO[C@@]16O[C@]23[C@H]5C6=O)C(=O)O4 [Compound 7, Physalin G] |  |  |  |  |  |  |  | no significant activity |  | Non cytotoxic | Non cytotoxic | 52.3 ± 1.18 | 19.49 ± 0.02 |  | > 100 | Non cytotoxic | IC50 ([6]; Leishmania tropica, read-out: MIL Resistant L. tropica IC50 (μM± SD)): 39.4 ± 0.65 µM |
| CC12CC3OC(=O)C1COC14OC5(C2C1=O)C(O)(CC(O)C1C4CC(O)C24C=CC(OO2)C(=O)C14C)C(=O)OC35C (stereo not drawn) [Compound 8, Physalin K] |  |  |  |  |  |  |  | no significant activity | inactive | Non cytotoxic | Non cytotoxic |  |  | inactive |  | Non cytotoxic | L. tropica IC50 (μM± SD) [2, 15]: inactive; CC50 [3]: > 100 µM |
| C[C@@]12C[C@H]3OC(=O)[C@@H]1CO[C@@]14O[C@]5([C@H]2C1=O)[C@@](O)(CC[C@H]1[C@H]4C[C@@H](O)[C@@]2(O)CC=CC(=O)[C@]12C)C(=O)O[C@@]35C [Compound 9, Physalin D] |  |  |  |  |  |  |  | no significant activity | inactive | Non cytotoxic | Non cytotoxic |  | 55.24 ± 0.01 | inactive | > 100 | Non cytotoxic |  |
| CCCCCCCCCCCCCCCCOP(=O)([O-])OCC[N+](C)(C)C [Miltefosine, reference compound] |  | 10.4 ± 0.42 | 25.6 ± 1.03 |  | 17.4 ± 0.42 | 42.8 ± 1.03 |  |  |  |  |  |  |  |  |  |  | BJ cell line CC50 (μM± SD) [4]: non-toxic |
| N=C(N)c1ccc(OCCCCCOc2ccc(C(=N)N)cc2)cc1 [Pentamidine, reference compound] |  | 9.25 ± 0.005 | 27.2 ± 0.015 |  | 9.25 ± 0.005 | 27.2 ± 0.01 |  |  |  |  |  |  |  |  |  |  |  |
